Data from ChEMBL document CHEMBL5291721, “A preclinical secondary pharmacology resource illuminates target-adverse drug reaction associations of marketed drugs” (Nat Commun, 2023).

What was measured:
[1] = molecular target: T1, Muscarinic acetylcholine receptor M2 (Homo sapiens, UniProt P08172); type: functional, cell-based
T1 sequence (P08172 whole entry): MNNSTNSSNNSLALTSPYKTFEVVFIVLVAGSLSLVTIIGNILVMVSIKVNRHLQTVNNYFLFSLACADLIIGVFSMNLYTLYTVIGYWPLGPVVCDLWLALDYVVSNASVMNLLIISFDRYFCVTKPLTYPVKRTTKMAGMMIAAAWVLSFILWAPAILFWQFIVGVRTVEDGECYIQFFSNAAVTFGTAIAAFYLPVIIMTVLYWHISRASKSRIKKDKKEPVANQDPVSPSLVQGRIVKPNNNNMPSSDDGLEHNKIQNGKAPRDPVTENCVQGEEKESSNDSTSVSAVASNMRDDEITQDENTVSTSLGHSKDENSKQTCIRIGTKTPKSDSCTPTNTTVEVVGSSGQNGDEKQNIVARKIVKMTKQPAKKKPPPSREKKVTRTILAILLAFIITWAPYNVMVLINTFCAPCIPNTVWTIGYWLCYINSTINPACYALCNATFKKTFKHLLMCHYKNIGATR

[2] = molecular target: T2, Progesterone receptor (Homo sapiens, UniProt P06401); type: functional
T2 sequence (P06401 whole entry): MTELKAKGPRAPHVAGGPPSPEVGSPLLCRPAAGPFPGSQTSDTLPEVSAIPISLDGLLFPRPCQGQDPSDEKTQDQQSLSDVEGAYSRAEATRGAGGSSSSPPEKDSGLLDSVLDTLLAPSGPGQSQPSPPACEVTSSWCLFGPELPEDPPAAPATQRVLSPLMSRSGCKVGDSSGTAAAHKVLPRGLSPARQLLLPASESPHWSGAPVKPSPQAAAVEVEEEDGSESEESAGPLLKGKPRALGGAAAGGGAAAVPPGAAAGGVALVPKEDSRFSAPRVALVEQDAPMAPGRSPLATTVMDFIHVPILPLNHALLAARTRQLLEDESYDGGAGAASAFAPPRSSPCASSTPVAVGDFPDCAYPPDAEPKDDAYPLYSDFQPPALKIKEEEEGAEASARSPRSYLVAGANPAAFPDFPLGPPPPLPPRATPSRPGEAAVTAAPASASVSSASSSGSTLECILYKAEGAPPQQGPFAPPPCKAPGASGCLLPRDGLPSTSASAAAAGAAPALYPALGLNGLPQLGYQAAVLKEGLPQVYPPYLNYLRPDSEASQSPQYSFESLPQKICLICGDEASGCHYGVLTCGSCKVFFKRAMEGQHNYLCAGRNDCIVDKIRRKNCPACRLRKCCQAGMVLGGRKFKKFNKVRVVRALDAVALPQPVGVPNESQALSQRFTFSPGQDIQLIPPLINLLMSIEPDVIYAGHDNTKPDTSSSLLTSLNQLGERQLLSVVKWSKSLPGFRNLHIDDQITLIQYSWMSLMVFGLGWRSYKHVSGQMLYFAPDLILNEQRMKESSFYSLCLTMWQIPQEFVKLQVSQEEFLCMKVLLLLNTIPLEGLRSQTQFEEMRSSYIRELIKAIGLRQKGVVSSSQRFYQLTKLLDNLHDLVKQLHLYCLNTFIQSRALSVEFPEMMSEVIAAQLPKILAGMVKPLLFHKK

[3] = molecular target: T3, Estrogen receptor (Homo sapiens, UniProt P03372)
T3 sequence (P03372 whole entry): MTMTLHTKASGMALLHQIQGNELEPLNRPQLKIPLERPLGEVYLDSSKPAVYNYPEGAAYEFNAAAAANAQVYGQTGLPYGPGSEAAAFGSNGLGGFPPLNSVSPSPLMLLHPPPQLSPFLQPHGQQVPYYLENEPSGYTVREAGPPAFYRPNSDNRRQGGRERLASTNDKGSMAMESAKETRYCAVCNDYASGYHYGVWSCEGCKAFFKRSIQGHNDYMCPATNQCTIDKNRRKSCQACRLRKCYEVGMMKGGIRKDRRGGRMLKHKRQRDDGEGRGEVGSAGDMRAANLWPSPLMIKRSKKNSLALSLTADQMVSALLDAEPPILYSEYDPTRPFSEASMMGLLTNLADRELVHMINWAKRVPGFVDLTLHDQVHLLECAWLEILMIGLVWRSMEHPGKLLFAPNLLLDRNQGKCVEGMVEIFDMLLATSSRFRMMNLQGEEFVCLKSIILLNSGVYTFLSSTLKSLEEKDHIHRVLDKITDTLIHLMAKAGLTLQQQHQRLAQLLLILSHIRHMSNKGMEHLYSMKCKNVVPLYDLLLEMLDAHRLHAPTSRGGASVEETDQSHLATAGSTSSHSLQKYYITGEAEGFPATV

[4] = molecular target: Delta-type opioid receptor (Homo sapiens, UniProt P41143)
Delta-type opioid receptor, sequence (P41143 whole entry): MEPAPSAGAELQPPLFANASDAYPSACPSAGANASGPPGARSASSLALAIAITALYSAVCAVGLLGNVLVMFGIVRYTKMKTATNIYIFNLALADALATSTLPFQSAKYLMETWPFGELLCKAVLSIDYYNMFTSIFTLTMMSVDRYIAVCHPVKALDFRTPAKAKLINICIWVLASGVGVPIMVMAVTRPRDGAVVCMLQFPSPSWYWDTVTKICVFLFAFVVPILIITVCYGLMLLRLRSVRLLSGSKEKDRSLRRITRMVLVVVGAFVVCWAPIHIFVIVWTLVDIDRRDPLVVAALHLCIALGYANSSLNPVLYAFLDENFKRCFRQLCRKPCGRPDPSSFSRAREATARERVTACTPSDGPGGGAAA

[5] = molecular target: Voltage-gated inwardly rectifying potassium channel KCNH2 (Homo sapiens, UniProt Q12809); type: functional; settings: read-out: AC50
Voltage-gated inwardly rectifying potassium channel KCNH2, sequence (Q12809 whole entry): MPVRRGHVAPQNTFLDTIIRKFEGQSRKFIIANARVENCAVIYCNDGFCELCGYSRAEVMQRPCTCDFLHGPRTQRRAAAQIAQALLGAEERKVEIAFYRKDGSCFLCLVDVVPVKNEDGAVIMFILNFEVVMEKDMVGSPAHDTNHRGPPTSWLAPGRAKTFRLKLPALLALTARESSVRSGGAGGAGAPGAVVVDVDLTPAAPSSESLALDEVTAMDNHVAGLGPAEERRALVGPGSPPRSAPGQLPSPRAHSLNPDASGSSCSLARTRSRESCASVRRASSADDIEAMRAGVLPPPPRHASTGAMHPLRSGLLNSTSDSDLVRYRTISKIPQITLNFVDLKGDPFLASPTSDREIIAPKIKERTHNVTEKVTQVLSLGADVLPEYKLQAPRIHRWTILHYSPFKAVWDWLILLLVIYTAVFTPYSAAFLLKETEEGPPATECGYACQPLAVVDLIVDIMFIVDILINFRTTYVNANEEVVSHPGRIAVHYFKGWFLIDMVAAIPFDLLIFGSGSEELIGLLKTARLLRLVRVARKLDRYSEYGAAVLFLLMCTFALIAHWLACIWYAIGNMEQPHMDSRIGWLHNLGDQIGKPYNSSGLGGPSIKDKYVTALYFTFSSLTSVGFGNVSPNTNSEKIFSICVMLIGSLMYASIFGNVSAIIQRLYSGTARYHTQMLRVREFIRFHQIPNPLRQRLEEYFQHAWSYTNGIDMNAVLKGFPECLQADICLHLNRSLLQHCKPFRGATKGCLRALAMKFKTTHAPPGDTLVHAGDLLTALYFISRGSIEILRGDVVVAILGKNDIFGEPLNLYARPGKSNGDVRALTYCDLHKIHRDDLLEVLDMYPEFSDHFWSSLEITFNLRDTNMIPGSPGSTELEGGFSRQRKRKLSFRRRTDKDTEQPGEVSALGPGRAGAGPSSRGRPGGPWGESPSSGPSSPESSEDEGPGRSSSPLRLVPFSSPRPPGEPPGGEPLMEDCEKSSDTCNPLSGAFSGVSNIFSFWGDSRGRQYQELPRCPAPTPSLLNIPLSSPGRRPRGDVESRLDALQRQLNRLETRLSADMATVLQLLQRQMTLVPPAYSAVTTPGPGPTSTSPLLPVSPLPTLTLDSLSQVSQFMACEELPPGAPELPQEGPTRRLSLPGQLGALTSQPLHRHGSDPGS

[6] = molecular target: Vasopressin V2 receptor (Homo sapiens, UniProt P30518)
Vasopressin V2 receptor, sequence (P30518 whole entry): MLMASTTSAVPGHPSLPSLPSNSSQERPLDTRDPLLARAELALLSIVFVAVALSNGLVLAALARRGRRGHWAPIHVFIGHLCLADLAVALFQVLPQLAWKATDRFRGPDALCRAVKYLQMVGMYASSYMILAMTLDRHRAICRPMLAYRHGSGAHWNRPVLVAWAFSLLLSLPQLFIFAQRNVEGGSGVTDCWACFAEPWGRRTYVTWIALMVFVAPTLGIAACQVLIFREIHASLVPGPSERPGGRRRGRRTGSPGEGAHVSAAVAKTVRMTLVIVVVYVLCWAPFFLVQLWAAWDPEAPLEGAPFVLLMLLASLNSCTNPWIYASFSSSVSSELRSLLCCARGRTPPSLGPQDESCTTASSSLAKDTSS

[7] = molecular target: T4, Alpha-1A adrenergic receptor (Homo sapiens, UniProt P35348); type: functional, cell-based
T4 sequence (P35348 whole entry): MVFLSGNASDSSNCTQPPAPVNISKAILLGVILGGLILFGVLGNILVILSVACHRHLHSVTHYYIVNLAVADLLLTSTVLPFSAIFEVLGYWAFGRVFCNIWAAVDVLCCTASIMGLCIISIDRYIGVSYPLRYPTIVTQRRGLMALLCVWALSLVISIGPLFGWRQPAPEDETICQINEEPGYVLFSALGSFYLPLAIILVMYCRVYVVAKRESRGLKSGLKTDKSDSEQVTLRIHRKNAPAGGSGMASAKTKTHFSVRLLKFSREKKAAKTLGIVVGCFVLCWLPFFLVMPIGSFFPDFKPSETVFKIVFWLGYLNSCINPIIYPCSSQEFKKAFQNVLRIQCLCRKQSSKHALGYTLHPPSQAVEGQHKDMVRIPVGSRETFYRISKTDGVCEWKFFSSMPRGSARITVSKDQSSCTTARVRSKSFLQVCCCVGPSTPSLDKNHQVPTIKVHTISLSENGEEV
Note: assay procedure not described here.

Row | SMILES | AC50 [1] [µM] | AC50 [2] [µM] | AC50 [3] [µM] | AC50 [4] [µM] | AC50 [5] [µM] | AC50 [6] [µM] | AC50 [7] [µM]
1 | CC(C)(C)C(=O)Oc1ccc(S(=O)(=O)Nc2ccccc2C(=O)NCC(=O)O)cc1 | > 30 | > 30 | > 30 | > 30 | > 30 | > 30 | –
2 | NCC[C@H](O)C(=O)N[C@@H]1C[C@H](N)[C@@H](O[C@H]2O[C@H](CN)[C@@H](O)[C@H](O)[C@H]2O)[C@H](O)[C@H]1O[C@H]1O[C@H](CO)[C@@H](O)[C@H](N)[C@H]1O [AMIKACIN] | > 10 | > 10 | > 10 | > 30 | > 30 | > 10 | –
3 | COC(=O)C1=C(C)NC(C)=C(C(=O)OC2CCCN(Cc3ccccc3)C2)C1c1cccc([N+](=O)[O-])c1 (centres undefined) [BENIDIPINE] | > 30 | – | > 30 | > 30 | 2.01 | > 30 | 4.5
4 | CC(C[N+](C)(C)C)OC(N)=O (centres undefined) [BETHANECHOL] | – | > 10 | > 10 | > 30 | > 30 | > 10 | –
5 | CCN1CCN(C(=O)N[C@@H](C(=O)N[C@@H]2C(=O)N3C(C(=O)O)=C(CSc4nnnn4C)CS[C@H]23)c2ccc(O)cc2)C(=O)C1=O [CEFOPERAZONE] | > 30 | – | > 30 | > 30 | > 30 | > 30 | > 30
6 | Cc1cc(O)c(C(=O)N[C@@H](C(=O)N[C@@H]2C(=O)N3C(C(=O)O)=C(CSc4nnnn4C)CS[C@H]23)c2ccc(O)cc2)cn1 [CEFPIRAMIDE] | > 30 | > 30 | > 30 | > 30 | > 30 | > 30 | –
7 | C#C[C@]1(O)CC[C@H]2[C@@H]3CCC4=Cc5oncc5C[C@]4(C)[C@H]3CC[C@@]21C [DANAZOL] | > 10 | – | > 30 | > 30 | > 30 | > 10 | > 30
8 | CC(=O)OCC(=O)[C@@]12N=C(C)O[C@@H]1C[C@H]1[C@@H]3CCC4=CC(=O)C=C[C@]4(C)[C@H]3[C@@H](O)C[C@@]12C [DEFLAZACORT] | > 30 | – | > 30 | > 30 | > 30 | > 30 | > 30
9 | CC1(C)O[C@@H]2C[C@H]3[C@@H]4CCC5=CC(=O)C=C[C@]5(C)[C@H]4[C@@H](O)C[C@]3(C)[C@]2(C(=O)CO)O1 [DESONIDE] | > 10 | – | > 30 | > 30 | > 30 | > 10 | > 30
10 | CCc1c(Cl)c(O)c(Cl)c(O)c1C(=O)O[C@H]1[C@H](O)[C@H](OC)[C@H](OC/C2=C\C=C\C[C@H](O)/C(C)=C/[C@H](CC)[C@@H](O[C@@H]3OC(C)(C)[C@@H](OC(=O)C(C)C)[C@H](O)[C@@H]3O)/C(C)=C/C(C)=C/C[C@@H]([C@@H](C)O)OC2=O)O[C@@H]1C [FIDAXOMICIN] | – | > 30 | > 30 | > 30 | > 30 | > 30 | –
11 | Cc1ccc(S(=O)(=O)NC(=O)NN2CC3CCCC3C2)cc1 (centres undefined) [GLICLAZIDE] | > 10 | > 10 | > 10 | > 30 | > 30 | > 10 | –
12 | CC(C)Cn1cnc2c(N)nc3ccccc3c21 [IMIQUIMOD] | > 10 | > 10 | > 10 | > 30 | 28.3 | > 10 | –
13 | CO[C@@H]1[C@@H](O[C@@H]2O[C@H](C)[C@@H](O[C@H]3C[C@@](C)(O)[C@@H](OC(=O)CC(C)C)[C@H](C)O3)[C@H](N(C)C)[C@H]2O)[C@@H](CC=O)C[C@@H](C)[C@@H](O)/C=C/C=C/C[C@@H](C)OC(=O)C[C@H]1OC(C)=O [JOSAMYCIN] | > 10 | > 10 | > 10 | > 30 | > 30 | > 10 | –
14 | COC(=O)C1=C(C)NC(C)=C(C(=O)OC(C)(C)CN(C)CCC(c2ccccc2)c2ccccc2)C1c1cccc([N+](=O)[O-])c1 (centres undefined) [LERCANIDIPINE] | > 30 | > 30 | > 30 | > 30 | > 30 | > 30 | –
15 | C[C@H](N)[C@H](O)c1cccc(O)c1 [METARAMINOL] | > 10 | > 10 | > 10 | > 30 | > 30 | > 10 | –
16 | O=C(O)[C@H](CC(=O)N1C[C@H]2CCCC[C@H]2C1)Cc1ccccc1 [MITIGLINIDE] | > 10 | > 10 | > 10 | > 30 | > 30 | > 10 | –
17 | CN1CCC(=C2c3ccccc3CCc3sccc32)CC1 [PIZOTYLINE] | 0.123 | – | > 30 | > 30 | 2.31 | > 30 | > 30
18 | COC(=O)[C@H]1[C@H]2C[C@@H]3c4[nH]c5cc(OC)ccc5c4CCN3C[C@H]2C[C@@H](OC(=O)/C=C/c2cc(OC)c(OC)c(OC)c2)[C@@H]1OC [RESCINNAMINE] | > 10 | > 10 | > 10 | > 30 | 0.988 | > 10 | –
19 | C=CCC1(C(C)CC)C(=O)NC(=O)NC1=O (centres undefined) [TALBUTAL] | > 10 | > 10 | > 10 | > 30 | > 30 | > 10 | –
20 | CN1C(=O)C(O)N=C(c2ccccc2)c2cc(Cl)ccc21 (centres undefined) [TEMAZEPAM] | > 10 | – | > 30 | > 30 | – | > 30 | > 30
21 | CN1CCN(CC/C=C2/c3ccccc3Sc3ccc(S(=O)(=O)N(C)C)cc32)CC1 [THIOTHIXENE] | > 10 | – | > 30 | > 10 | 1.63 | 20 | > 30
22 | CN1C(=O)OC(C)(C)C1=O [TRIMETHADIONE] | > 10 | > 10 | > 10 | > 30 | > 30 | > 10 | –
